Results taken from patent US5274002A, “Trisubstituted phenyl analogs having activity for congestive heart failure” (Warner-Lambert Company, priority 1990, dated 1993).

Key:
[1] = system: isolated Langendorff rat heart; assay: isolated Langendorff rat heart (CVIH), coronary flow; conditions: In Vitro Langendorf Isolated Rat Heart, constant perfusion pressure 70 mm Hg, 37° C.; for EC25: read-out: EC 25 (Coronary Flow); for EC50: read-out: EC 50 (Coronary Flow)
Experimental: TEST FOR INOTROPIC, CHRONOTROPIC, AND VASCULAR ACTIVITIES IN THE ISOLATED LANGENDORFF RAT HEART (CVIH)
Male rats (400-600 gms) are pretreated with 2000 units Na heparin (Parke-Davis) and anesthetized with Na pentobarbital (50 mg/kg, Butler Co.) administered intraperitoneally. Once anesthetized, the rat heart is rapidly excised, the ascending aorta fitted to the aortic perfusion cannula, and secured with a ligature. The coronary arteries were perfused initially at a rate of about 15 ml/min for two to three minutes, after which they are perfused at constant pressure of 70 mm Hg and temperature of 37° C. The electrocardiogram (ECG) is recorded using two platinum electrodes positioned at the base and apex of the left ventricle. A second heart is excised, cannulated, and perfused by the same method outlined above. Both hearts are tested in parallel. The standard physiological salt solution (PSS) is a modified Krebs-Hanseleit bicarbonate buffer of the following composition in mM concentration: NaCl, 127; NaHCO3, 25; dextrose, 5.5; Na Pyruvate, 2.0; KCl, 4.7;MgSO4, 1.1; KH2 PO4, 1.2; CaCl2 ·2H2O, 2.5; CaNa2 EDTA, 0.05.
A 30-minute stabilization period is observed before starting the test protocol.
Microprocessor Controlled Coronary Perfusion and Drug Delivery System
The microprocessor control system is a servo mechanism which permits coronary perfusion pressure (CPP) and drug concentration to be maintained constant independent of changes in coronary flow. The level at which CPP and drug concentration are maintained can be changed by commands communicated through the microprocessor keyboard. Dose-response curves are carried out by perfusing a solution at a specified drug concentration (DC) at rates proportional to total coronary flow (CFT). Drug concentrations are increased by proportionate increases in the rate of DC infusion over CFT via the microprocessor keyboard. The proportional flow rates for DC:CFT is about 0.0002:1 at the low end and 0.02:1 at the high end of the dose-response curve. Dose-response curves encompassing at least two log doses are carried out by preparing two DCs with a concentration difference of 1:100. Following the first dose range of two log doses, the DC is switched, proportional pumping rate adjusted, and the dose-response curve continued for another two log doses. The standard dose-response curve is carried out in one-half log dose increments starting at a subthreshold dose and ending at a dose which produces near maximal response in activity. Standard reference compounds are tested over the range of 10^-9 to 10^-6 M.
Measurements are for coronary flow (CF). Units are: CF, milliliters/minute (ml/min). CF is calculated by recording analog outputs from pumps 1 and 2. Outputs from pump #1=CFT and the output from pump #2=CF for heart B (CFB) CF for heart A (CFA) is calculated (CFT -CFB =CFA).
Using the above coronary blood flow evaluation technique, the effects of the compounds of each indicated example is shown as the EC (effective concentration) 25/(effective concentration) EC 50.

anesthetized dog = assay: in vivo myocardial inotropic activity in the anesthetized dog; conditions: 1.0 mg/kg, change from control data prior to dosing
Experimental: TEST FOR IN VIVO MYOCARDIAL INOTROPIC ACTIVITY IN THE ANESTHETIZED DOG
Adult mongrel dogs of either sex are anesthetized with pentobarbital, 35 mg/kg, IV, and are maintained under anesthesia with a continuous infusion of pentobarbital, 3.5 mg/kg/hr. The trachea is intubated, but the animals are permitted to breathe spontaneously. A cannula is inserted into the femoral vein for administering test agents. A Millar catheter tip pressure transducer or a fluid filled catheter is inserted into the ascending aorta via the femoral artery for measuring pressure. A Millar catheter tip pressure transducer is passed into the left ventricle via the left carotid artery for measuring left ventricular blood pressure. Needle electrodes are placed subcutaneously for recording a lead II electrocardiogram. Before administering test agents, control data is acquired over a period of at least thirty minutes.
The test agent is dissolved in dimethylacetamide. Each dose is administered in a volume of 0.5 ml over a period of one minute. Appropriate vehicle controls are also administered.
When tested by this protocol, representative compounds of formula I, when administered at a dose of 1 mg/kg, produced an increase in contractility, a minimal increase in blood pressure, and an increase in heart rate as shown in the following Table B.

SMILES | EC25 [1] | EC50 [1] | Blood Pressure, percent increase (+) or decrease (-) from control data (anesthetized dog) | Contractility, percent increase (+) or decrease (-) from control data (anesthetized dog) | Heart Rate, percent increase (+) or decrease (-) from control data (anesthetized dog)
COc1ccc(CCC(=O)O)cc1OC1CCCC1 [Example 13, 3-(3-Cyclopentoxy-4-methoxyphenyl)-n-propanoic acid] | 4 µM | 15 µM | +9% | +47% | +23%
COc1ccc(CCC(N)=O)cc1OC1CCCC1 [Example 16, 3-(3-Cyclopentoxy-4-methoxyphenyl)-n-propionyl amide] | 3 µM | 10 µM | +5% | +127% | +25%
COc1ccc(/C=C/C=O)cc1OC1CCCC1 [Example 21, 3-(3-Cyclopentoxy-4-methoxyphenyl)-E-propene-1-aldehyde] | 1.1 µM | 2 µM | -1% | +62% | +35%
COc1ccc(CCCO)cc1OC1CCCC1 [Example 19, 3-(3-Cyclopentoxy-4-methoxyphenyl)-n-1-propanol] | 2 µM | 7 µM | +9% | +91% | +25%
COC(=O)/C=C/c1ccc(OC)c(OC2CCCC2)c1 [Example 3, Methyl 3-(3-cyclopentoxy-4-methoxyphenyl)-E-propenoate] | 2 µM | > 500 µM | +16% | +77% | +20%
COC(=O)CCc1ccc(OC)c(OC2CCCC2)c1 [Example 9, Methyl 3-(3-cyclopentoxy-4-methoxyphenyl)-n-propionate] | 15 µM | 22 µM | +5% | +36% | +41%
